Series [1] deals with uninfected human PBM cells. Briefly: Growth inhibition of mitogen-stimulated uninfected human PBM cells, trypan blue exclusion. In kind it is cell-based. The note with it: uninfected human PBM cells, 6 days; error estimated at ±10%; read-out: Cytotoxicity IC50.
For series [2], the system named is HIV-1 (strain LAV). Description: microbe, parasite or virus in culture. In kind it is cell-based. To be noted: Human immunodeficiency virus 1, PBMC; for inhibition at 0.001 µM / inhibition at 0.005 µM / inhibition at 0.01 µM / inhibition at 0.05 µM / inhibition at 0.1 µM / inhibition at 0.5 µM: read-out: % Inhibition (Corrected). The text has this:
It is often desirable to screen a number of racemic mixtures of nucleosides as a preliminary step to determine which warrant further resolution into enantiomerically enriched components and further evaluation of antiviral activity. The ability of nucleosides to inhibit HIV can be measured by various experimental techniques. The technique used herein, and described in detail below, measures the inhibition of viral replication in phytohemagglutinin (PHA) stimulated human peripheral blood mononuclear (PBM) cells infected with HIV-1 (strain LAV). The amount of virus produced is determined by measuring the virus-coded reverse transcriptase enzyme. The amount of enzyme produced is proportional to the amount of virus produced.
• A. Three-day-old phytohemagglutinin-stimulated PBM cells (10^6 cells/ml) from hepatitis B and HIV-1 seronegative healthy donors were infected with HIV-1 (strain LAV) at a concentration of about 100 times the 50% tissue culture infectious dose (TICD 50) per ml and cultured in the presence and absence of various concentrations of antiviral compounds. • B. Approximately one hour after infection, the medium, with the compound to be tested (2 times the final concentration in medium) or without compound, was added to the flasks (5 ml; final volume 10 ml). AZT was used as a positive control. • C. The cells were exposed to the virus (about 2 x 10^5 dpm/ml, as determined by reverse transcriptase assay) and then placed in a CO2 incubator. HIV-1 (strain LAV) was obtained from the Center for Disease Control, Atlanta, Georgia. The methods used for culturing the PBM cells, harvesting the virus and determining the reverse transcriptase activity were those described by McDougal et al. (J. Immun. Meth. 76, 171-183, 1985) and Spira et al. (J. Clin. Meth. 25, 97-99, 1987), except that fungizone was not included in the medium (see Schinazi, et al., Antimicrob. Agents Chemother. 32, 1784-1787 (1988); Id., 34:1061-1067 (1990)). • D. On day 6, the cells and supernatant were transferred to a 15 ml tube and centrifuged at about 900 g for 10 minutes. Five ml of supernatant were removed and the virus was concentrated by centrifugation at 40,000 rpm for 30 minutes (Beckman 70.1 Ti rotor). The solubilized virus pellet was processed for determination of the levels of reverse transcriptase. Results are expressed in dpm/ml of sampled supernatant. Virus from smaller volumes of supernatant (1 ml) can also be concentrated by centrifugation prior to solubilization and determination of reverse transcriptase levels.

Series [3] has as its system HIV. Description: microbe, parasite or virus in culture. The series is classed as cell-based. To be noted: Human immunodeficiency virus 1; MT4 system.
The subject of series [4] is granulocyte-macrophage precursor cells. To be noted: compared with the (+)-enantiomer and AZT; Figure 12.
Series [5] can be described thus: Toxicity analysis in 2.2.15 cells, neutral red dye uptake. In kind it is cell-based, human. The note with it: human, 2.2.15 cells. The method, then:
(§1) Toxicity analyses were performed to assess whether any observed antiviral effects were due to a general effect on cell viability. The method used herein was the measurement of the uptake of neutral red dye, a standard and widely used assay for cell viability in a variety of virus-host systems, including HSV and HIV. Toxicity analyses were performed in 96-well flat bottomed tissue culture plates. Cells for the toxicity analyses were cultured and treated with test compounds with the same schedule as described for the antiviral evaluations below. Each compound was tested at 4 concentrations, each in triplicate cultures (wells "A", "B", and "C"). Uptake of neutral red dye was used to determine the relative level of toxicity. The absorbance of internalized dye at 510 nm (Asin) was used for the quantitative analysis. Values are presented as a percentage of the average Asin values in 9 separate cultures of untreated cells maintained on the same 96-well plate as the test compounds. Dye uptake in the 9 control cultures on plate 5 ranged from 91.6% to 110.4%, and on plate 6 from 96.6% to 109%.

The test system of series [6] is 2.2.15 cells. Described as above. The series is classed as cell-based, human. The note with it: 330 µM. The method, then: as §1
Series [7] concerns HBV. To be noted: for INT[…] DNA RI: HBV DNA replication intermediates; for inhibition of the replication of HBV: at the tested levels (Table 7, 10 µM). The protocol:
A summary and description of the assay for antiviral effects in this culture system and the analysis of HBV DNA has been described (Korba and Milman, 1991, Antiviral Res., 15:217). The antiviral evaluations were performed on two separate passages of cells. All wells, in all plates, were seeded at the same density and at the same time.
Due to the inherent variations in the levels of both intracellular and extracellular HBV DNA, only depressions greater than 3.5-fold (for HBV virion DNA) or 3.0-fold (for HBV DNA replication intermediates) from the average levels for these HBV DNA forms in untreated cells are considered to be statistically significant [P<0.05]. The levels of integrated HBV DNA in each cellular DNA preparation (which remain constant on a per cell basis in these experiments) were used to calculate the levels of intracellular HBV DNA forms, thereby ensuring that equal amounts of cellular DNA were compared between separate samples.

Series [8] deals with HIV-2. Briefly: microbe, parasite or virus in culture. To be noted: Human immunodeficiency virus 2, PBMC. The method, then:
Cell lines were obtained from either human donors, AIDS Research and Reference Reagent Program, NIH, Rockville, Maryland, ATCC, or the Red Cross. The CEM thymidine kinase deficient cells were prepared by sequential passage of CEM cells in the presence of 5-bromo-2'-deoxyuridine.

The nature of series [9]: Growth inhibition of mitogen-stimulated uninfected human PBM cells, trypan blue exclusion. The series is classed as cell-based. To be noted: human, pbm cells.
Setting [10] is: read-out: DYE UPTAKE (% OF CONTROL) WELL A.
Setting [11] is: read-out: DYE UPTAKE (% OF CONTROL) WELL C.
[12] abbreviates: read-out: DYE UPTAKE (% OF CONTROL) WELLB.

Where “and” joins values, the source holds several entries; their conditions need not be identical. Equal values may be shown once. Read-outs that look alike come from different tables or passages of the source.

With `Cc1cn(C2CSC(CO)O2)c(=O)[nH]c1=O` (stereo not shown) [DLS-010], in [1], the CC50 is more than 100000 nM.

Take `CCCC(=O)OC[C@@H]1O[C@H](n2cc(F)c(N)nc2=O)CS1` (racemic) [5'-O-butyrate ester of (±)-FTC]: the EC50 in [2] was 0.0017 µM; in series [3], 40 nM.

As for `O=c1[nH]c(=O)n([C@H]2CS[C@@H](CO)O2)cc1Cl` [DLS-028], in series [1], the CC50 is more than 100000 nM.

As to `Nc1nc(=O)n([C@@H]2CS[C@H](CO)O2)cc1C(F)(F)F` [DLS-053], the CC50 in [1] was more than 100000 nM.

Take `Cc1cn([C@H]2CS[C@@H](CO)O2)c(=O)nc1N` [DLS-011]: in [1], the CC50 was more than 100000 nM.

In series [2], `CC(=O)Nc1nc(=O)n([C@@H]2CS[C@H](CO)O2)cc1F` (racemic) [N^4-acetyl derivative of (±)-FTC] showed an EC50 of 0.0028 µM.

For `Nc1nc(=O)n([C@H]2CS[C@@H](CO)O2)cc1Cl` [DLS-023], the CC50 in series [1] is more than 100000 nM.

On to `Nc1nc(=O)n([C@H]2CS[C@@H](CO)O2)cc1Br` [DLS-021], for which the CC50 in series [1] was more than 100000 nM.

For `Nc1nc(=O)n([C@@H]2CS[C@H](CO)O2)cc1F` (single isomer, unassigned) [(-)-FTC, (-)-β-L-2-hydroxymthyl-5-(5-fluorocytosin-1-yl)-1,3-oxathiolane], the “toxicity (IC50) on colony formation” value in series [4] is listed as “less toxic”. In addition, in series [2], the inhibition at 0.001 µM is 23.8%, the inhibition at 0.005 µM was found to be 43.3%, the inhibition at 0.01 µM amounted to 24.8% and the inhibition at 0.05 µM turned out to be 76.2%. Moreover, in series [2], the inhibition at 0.1 µM turned out to be 93.5% and the inhibition at 0.5 µM is 97.6%. Also, in [2] (read-out: Antiviral EC50), the EC50 turned out to be 0.008 µM. For the same molecule, the EC50 in series [2] (read-out: EC50) was determined as 0.0077 µM. The EC50 in series [2] (read-out: EC50:µM) came out at 0.02 µM. Moreover, in [5] (setting [10]), the viability at 10 µM came out at 94.3%, the viability at 30 µM stood at 98.7%, the viability at 100 µM was 64.1% and the viability at 300 µM came to 53%. Also, in series [5] (setting [11]), the viability at 10 µM was 92.2%, the viability at 30 µM was 96.4%, the viability at 100 µM is 77.6% and the viability at 300 µM came out at 51.5%. Further, in [5] (setting [12]), the viability at 10 µM came to 94.9%, the viability at 30 µM is 94.3%, the viability at 100 µM came to 66.6% and the viability at 300 µM was determined as 51.1%. The “toxicity at the highest concentration used for the toxicity tests” value in series [6] was “appeared to be toxic”. Moreover, in series [7] (0.25 µM, replicate wells), the “HBV VIRION DNA DAY 0” value was found to be 89 pg/ml CULTURE MEDIUM and the “HBV VIRION DNA DAY 4” value is given as 15 pg/ml CULTURE MEDIUM. Moreover, the “INT[…] DNA RI” value in series [7] (1 µM, 24 hours following the 9th day of treatment) was 2 pg/µg CELL DNA and 3 pg/µg CELL DNA and 4 pg/µg CELL DNA. Also, in series [7] (1 µM, replicate wells), the “HBV VIRION DNA DAY 0” value was 89 pg/ml CULTURE MEDIUM; the “HBV VIRION DNA DAY 4” value was 15 pg/ml CULTURE MEDIUM and 22 pg/ml CULTURE MEDIUM. Moreover, the “INT[…] DNA MONO.” value in series [7] (1 µM, episomal 3.2 kb HBV genomes, 24 hours following the 9th day of treatment) is 1.7 pg/µg CELL DNA and 1.4 pg/µg CELL DNA. Moreover, the “INT[…] DNA RI” value in series [7] (4 µM, 24 hours following the 9th day of treatment) was 1 pg/µg CELL DNA and 2 pg/µg CELL DNA. Moreover, the “inhibition of the replication of HBV” value in series [7] is given as “significantly inhibited”. The molecule also registered an EC50 in series [8] of 0.7 nM. The molecule also gave a CC50 at 144 h in series [9] of more than 100000 nM.

For the molecule `Nc1nc(=O)n([C@H]2CS[C@@H](CO)O2)cc1F` [(+)-FTC, (+)-β-D-2-hydroxymethyl-5-(5-fluorocytosin-1-yl)-1,3-oxathiolane], in series [2], the inhibition at 0.001 µM worked out at 3.8%, the inhibition at 0.005 µM was -10.6%, the inhibition at 0.01 µM is -1.8% and the inhibition at 0.05 µM turned out to be 11.8%. Moreover, in series [2], the inhibition at 0.1 µM stood at 12.7% and the inhibition at 0.5 µM amounted to 71.4%. Also, the EC50 in [2] (read-out: Antiviral EC50) came to 0.84 µM. Further, the EC50 in series [2] (read-out: EC50) stood at 0.84 µM. In addition, the EC50 in [2] (read-out: EC50:µM) came out at 0.28 µM. Further, in [5] (setting [10]), the viability at 10 µM came out at 90.9%, the viability at 30 µM stood at 81.1%, the viability at 100 µM worked out at 77.7% and the viability at 300 µM amounted to 43.4%. Moreover, in series [5] (setting [11]), the viability at 10 µM is 90.5%, the viability at 30 µM is 88.1%, the viability at 100 µM was found to be 72.1% and the viability at 300 µM stood at 58.5%. Also, in series [5] (setting [12]), the viability at 10 µM is 99.4%, the viability at 30 µM was 88.3%, the viability at 100 µM worked out at 66.3% and the viability at 300 µM is 56.7%. The “toxicity at the highest concentration used for the toxicity tests” value in series [6] is “appeared to be toxic”. The “HBV VIRION DNA DAY 0” value in series [7] (10 µM, replicate wells) turned out to be 58 pg/ml Culture Medium. Moreover, the “HBV Virion DNA DAY 9” value in series [7] (10 µM, day 9, sensitivity cutoff 0.1 pg/ml, replicate wells) came out at 0.1 pg/ml Culture Medium. Also, the “inhibition of the replication of HBV” value in series [7] is given as “significantly inhibited”. Further, in series [8], the 50% effective concentration (EC50) was determined as 26 nM. Besides, the CC50 at 144 h in series [9] was more than 100000 nM.

Turning to `Nc1nc(=O)n([C@H]2CS[C@@H](CO)O2)cc1I` [DLS-026], the CC50 in series [1] was more than 100000 nM.

One may read the EC50 as the concentration at which the effect is half-maximal. For orientation: inhibition means the drop in the measured response relative to a control, in per cent.
